The text below walks through data of PMC3413742 (Biological psychiatry, 2012).

Broadly, the IC50 is the point on the concentration scale where inhibition reaches its midpoint.

One experiment concerns the target hDAT Y335A (Homo sapiens, UniProt Q01959, Y335A). The experiment in a line: [3H]DA uptake inhibition in COS-7 cells expressing hDAT Y335A mutant. The experiment is classed as cell-based.
Experiment [1] has as its target T1, hDAT WT (Homo sapiens, UniProt Q01959). As to the kind of experiment: [3H]WIN 35,428 binding in COS-7 cells transiently expressing hDAT WT. The conditions noted are these: R- versus S-modafinil.
Experiment [2] concerns the target T2, NET (Homo sapiens, UniProt P23975). As to the kind of experiment: [3H]DA uptake inhibition at the NET. The experiment is classed as cell-based.
The target of experiment [3] is T2, NET. The experiment in a line: [3H]nisoxetine binding at the NET.
Experiment [4] has as its system extracellular DA concentrations in the mouse NAc shell. As to the kind of experiment: Microdialysis of extracellular DA in the NAc shell. It counts as in vivo.
Experiment [5] has as its system mice trained to discriminate cocaine (10 mg/kg) from saline. As to the kind of experiment: Cocaine discrimination procedure. The experiment is classed as in vivo, mouse. The conditions noted are these: for substitution for the discriminative-stimulus effects of cocaine: pretreatment time 60 min.
The next experiment concerns DAT. The conditions noted are these: rat brain tissue; cited from earlier work.
The target in experiment [6] is T1, hDAT WT. As to the kind of experiment: [3H]DA uptake inhibition in COS-7 cells transiently expressing hDAT WT. It counts as cell-based.

T2 sequence (P23975 whole entry): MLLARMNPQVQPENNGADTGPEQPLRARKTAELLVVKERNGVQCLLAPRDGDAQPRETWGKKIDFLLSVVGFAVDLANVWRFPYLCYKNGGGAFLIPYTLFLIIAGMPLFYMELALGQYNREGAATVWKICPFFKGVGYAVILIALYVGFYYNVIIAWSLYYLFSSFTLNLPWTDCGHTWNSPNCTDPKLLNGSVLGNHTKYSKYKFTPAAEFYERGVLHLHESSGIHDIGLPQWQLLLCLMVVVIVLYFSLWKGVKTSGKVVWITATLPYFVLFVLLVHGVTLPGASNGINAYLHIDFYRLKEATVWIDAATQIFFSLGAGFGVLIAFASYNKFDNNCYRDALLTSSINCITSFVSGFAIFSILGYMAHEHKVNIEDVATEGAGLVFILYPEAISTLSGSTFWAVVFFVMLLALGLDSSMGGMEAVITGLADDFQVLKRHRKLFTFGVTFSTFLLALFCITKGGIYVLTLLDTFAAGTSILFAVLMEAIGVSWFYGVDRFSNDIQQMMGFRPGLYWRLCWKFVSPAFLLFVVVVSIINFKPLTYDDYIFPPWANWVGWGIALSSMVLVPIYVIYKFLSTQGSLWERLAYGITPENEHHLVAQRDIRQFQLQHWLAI
T1 sequence (Q01959 whole entry): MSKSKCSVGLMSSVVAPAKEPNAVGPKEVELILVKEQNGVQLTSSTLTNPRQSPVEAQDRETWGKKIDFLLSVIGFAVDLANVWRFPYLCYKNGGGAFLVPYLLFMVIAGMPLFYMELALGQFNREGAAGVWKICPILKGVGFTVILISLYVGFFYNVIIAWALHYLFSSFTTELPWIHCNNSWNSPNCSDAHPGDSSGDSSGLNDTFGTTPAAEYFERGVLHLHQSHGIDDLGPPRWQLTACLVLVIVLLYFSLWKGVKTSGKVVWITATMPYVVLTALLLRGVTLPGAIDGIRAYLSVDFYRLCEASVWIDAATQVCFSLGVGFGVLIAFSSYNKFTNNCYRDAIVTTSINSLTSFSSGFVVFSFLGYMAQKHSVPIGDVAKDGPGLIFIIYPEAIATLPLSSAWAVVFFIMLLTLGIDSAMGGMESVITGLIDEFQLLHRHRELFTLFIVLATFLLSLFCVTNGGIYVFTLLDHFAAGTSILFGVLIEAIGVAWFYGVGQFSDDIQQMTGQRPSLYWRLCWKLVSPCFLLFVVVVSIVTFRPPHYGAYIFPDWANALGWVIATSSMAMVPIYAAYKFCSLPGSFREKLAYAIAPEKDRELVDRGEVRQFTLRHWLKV
Chain of hDAT Y335A (Q01959 whole entry Y335A): as the sequence (Q01959 whole entry) above, with Y335A counted along it

With `CCCCN1[C@@H]2CC[C@H]1CC(OC(c1ccc(F)cc1)c1ccc(F)cc1)C2` (stereo partly shown) [JHW 007], the “Y335A:WT IC50 ratio for [3H]DA uptake inhibition” value on hDAT Y335A is given as ~ 20 fold.

On to `NC(=O)C[S@@+]([O-])C(c1ccccc1)c1ccccc1` [R-modafinil, R-(−)-modafinil], for which the “higher affinity for DAT than the S-enantiomer” value at hDAT WT [1] is ~ 3 fold. Besides, the IC50 against NET [2] and at NET [3] was > 100 µM throughout. Further, in experiment [4] (30, 100, 300 mg/kg i.p.), the “extracellular DA levels, stimulation as % of DA basal levels” value is on record as “approximately 300 % of DA basal levels”. In experiment [4] (30, 100, 300 mg/kg i.p.), the “time after injection at which DA stimulation was reached” value lay in the range of 40 to 60 min. The “substitution for the discriminative-stimulus effects of cocaine” value (from here on “substitution … of cocaine”) in experiment [5] was “fully substituted for cocaine”. Further, in the experiment with DAT, the “higher affinity for the DAT than the S-enantiomer” value is listed as ~ 3 fold.

Take `NC(=O)C[S+]([O-])C(c1ccccc1)c1ccccc1` (racemic) [(±)-modafinil]: the “[3H]DA uptake inhibition potency lower than observed for DA” value on hDAT WT [6] is given as “more than 7 fold”. In addition, the “substitution … of cocaine” value in experiment [5] is given as “fully substituted for cocaine”.

Consider `NC(=O)C[S@+]([O-])C(c1ccccc1)c1ccccc1` [S-modafinil, S-(+)-modafinil], for which the IC50 on NET [2] (read-out: IC50, inhibition of [3H]DA uptake at the NET, N=3, data not shown) is > 100 µM; on NET [3] (read-out: IC50, inhibition of [3H]nisoxetine binding at the NET, N=3, data not shown), > 100 µM. In addition, the “ED50 Value, substitution for cocaine (95% confidence limits)” value in experiment [5] (cocaine 5 min, modafinils 60 min before testing) is 89.0 (64.0 – 115) μmol/kg. Besides, the “substitution … of cocaine” value in experiment [5] was “fully substituted for cocaine”.

`COC(=O)[C@H]1[C@@H](OC(=O)c2ccccc2)C[C@@H]2CC[C@H]1N2C` [cocaine]: in experiment [4] (10 – 55 mg/kg), the “extracellular DA levels, maximum as % of basal levels” value is listed as “approximately 700 % of basal levels” and the “time after injection of maximum DA” value is given as ~ 30 min.
